{"source": "paper PMC7957917", "about": "(ACS Medicinal Chemistry Letters, 2021)", "key": {"ICR mice [1]": {"test_system": "ICR mice", "conditions": "ip, cited from earlier work; for tolerated dose: four mice per group"}, "RSV A2 strain": {"test_system": "RSV A2 strain", "test": "Multicycle replication of RSV in A549 cells", "assay_type": "cell-based, respiratory syncytial virus"}, "[2]": {"test": "Pharmacokinetic characterization in rats", "assay_type": "in vivo, Sprague Dawley rats", "conditions": "rat, ip, 2.5 mg/kg"}, "DENV-2 (strain 16681)": {"test_system": "DENV-2 (strain 16681)", "conditions": "Huh-7 cells, 48 h postinfection"}, "WNV (strain New York 99)": {"test_system": "WNV (strain New York 99)", "conditions": "Huh-7 cells, 48 h postinfection"}, "SARS-CoV-2": {"test_system": "SARS-CoV-2", "conditions": "infected Calu-3 cells; cited from earlier work"}, "rats": {"test_system": "rats", "test": "Tolerability after intravenous treatment of rats", "conditions": "1 mg/kg iv, three rats"}, "ICR mice [3]": {"test_system": "ICR mice", "test": "Acute toxicity study in mice", "conditions": "ip, HCl salts, four mice per group, doses 2.5, 5, 10, 15 mg/kg every 24 h"}}, "note": "Where “and” joins values, the source holds several entries; their conditions need not be identical. Equal entries are not always repeated. Where two headings read alike, the source gives them in different places.", "data": [{"smiles": "CC(C)(C)[C@H](NC(=O)[C@H](CCCNC(=N)N)NC(=O)Cc1ccc(CNC(=N)N)cc1)C(=O)N[C@@H](CCCCN)C(=O)NCc1ccc(C(=N)N)cc1", "note": "[Inhibitor 2]", "values": [{"measurement": "number of deaths at next higher dose", "setting": "ICR mice [1]; at 10 mg/kg", "result": "4 of 4 at 10 mg/kg"}, {"measurement": "tolerated dose", "setting": "ICR mice [1]", "result": 5, "unit": "mg/kg"}]}, {"smiles": "CC(C)(C)[C@H](NC(=O)[C@H](CCONC(=N)N)NC(=O)Cc1ccc(CNC(=N)N)cc1)C(=O)N[C@@H](CCONC(=N)N)C(=O)NCc1ccc(C(=N)N)cc1", "note": "[Inhibitor 8]", "values": [{"measurement": "RSV inhibition compared with reference inhibitor 1 (viral titers)", "setting": "RSV A2 strain; MOI 1, 0.1-10 µM inhibitor, 16-72 h post infection", "result": "strongest antiviral efficacy"}, {"measurement": "inhibition of RSV replication at 10 µM", "setting": "RSV A2 strain; initial tests, 10 µM", "result": "complete inhibition of virus replication"}, {"measurement": "period with plasma levels >1000 ng/mL (∼1.3 μM)", "setting": "[2]", "result": "approximately 3 h"}, {"measurement": "antiviral potency against DENV-2 (virus titers)", "setting": "DENV-2 (strain 16681)", "result": "significant antiviral potency"}, {"measurement": "antiviral potency against WNV (virus titers)", "setting": "WNV (strain New York 99)", "result": "significant antiviral potency"}, {"measurement": "reduction of SARS-CoV-2 replication", "setting": "SARS-CoV-2", "result": "significant reduction of the SARS-CoV-2 replication"}, {"measurement": "tolerability after iv treatment", "setting": "rats", "result": "well-accepted in all three rats without any signs of side effects"}, {"measurement": "tolerated dose", "setting": "ICR mice [3]", "result": 15, "unit": "mg/kg"}]}, {"smiles": "CC(C)(C)[C@H](NC(=O)[C@H](CCONC(=N)N)NC(=O)Cc1ccc(CN)cc1)C(=O)N[C@@H](CCCCN)C(=O)NCc1ccc(C(=N)N)cc1", "note": "[Inhibitor 5]", "values": [{"measurement": "tolerated dose", "setting": "ICR mice [3]", "result": 15, "unit": "mg/kg"}]}, {"smiles": "CC(C)(C)[C@H](NC(=O)[C@H](CCCNC(=N)N)NC(=O)Cc1ccc(CNC(=N)N)cc1)C(=O)N[C@@H](CCCNC(=N)N)C(=O)NCc1ccc(C(=N)N)cc1", "note": "[Inhibitor 1]", "values": [{"measurement": "number of deaths at next higher dose", "setting": "ICR mice [1]; at 5 mg/kg", "result": "all mice died and 4 of 4 at 5 mg/kg"}, {"measurement": "tolerated dose", "setting": "ICR mice [1]", "result": 2.5, "unit": "mg/kg"}, {"measurement": "tolerability after iv treatment", "setting": "rats", "result": "two of three rats died within 90 min"}]}]}
